From patent US20250268821A1 (AVALYN PHARMA INC., priority 2022, published 2025)
Like-named read-outs stand apart in the source and are kept apart here. One block for each compound: values may come before it.

Experiments:
[1] = Particle size distribution by laser diffraction (Malvern Mastersizer 3000); assay type: physicochemical; conditions: for PSD D10 / PSD D50 / PSD D90: micronised API after jet milling
Procedure: Particle size distribution was measured using a Malvern Mastersizer 3000. The sample for analysis (10 mg) was suspended in 0.1% lecithin in isooctane (10 mL) and sonicated to disperse the particles prior to measurement. A single sample was prepared for each measurement.
Two batches were prepared and particle size distribution measured using a Mastersizer 3000 (Table 8).

[2] = SEM, XRPD and overall stability assessment of micronised drug substance; assay type: physicochemical; conditions: 1 month 25°C/60% RH and 40°C/75% RH, then four months laboratory conditions
Procedure: Scanning electron microscopy and x-ray powder diffraction were performed at the University of Bath.
SEM images were recorded (FIGS. 1 and 2) and the polymorphic stability was assessed by XRPD (FIGS. 3 and 4) and DSC (FIG. 6). The characterization was then repeated after a further four months at laboratory conditions.

[3] = Moisture content by Karl Fischer coulometry; assay type: physicochemical
Procedure: Three assay determinations were made for each assay and the mean value reported. Moisture content was measured by Karl Fischer coulometry using a Metrohm 851 Tritrando coulometer and sample oven. 50 mg of each sample was heated to 80° C. Lactose monohydrate was used as a bracketing standard. Single measurements were made for each sample. The emitted dose was measured using Dosage Unit Sampling Apparatus (DUSA) at 100 L/min. The samples were recovered using 50 mL of diluent. Ten determinations were performed and mean value reported

[4] = target: Lyn (Homo sapiens, UniProt P07948); conditions: cited from earlier work
Lyn, sequence (P07948 whole entry, species assumed): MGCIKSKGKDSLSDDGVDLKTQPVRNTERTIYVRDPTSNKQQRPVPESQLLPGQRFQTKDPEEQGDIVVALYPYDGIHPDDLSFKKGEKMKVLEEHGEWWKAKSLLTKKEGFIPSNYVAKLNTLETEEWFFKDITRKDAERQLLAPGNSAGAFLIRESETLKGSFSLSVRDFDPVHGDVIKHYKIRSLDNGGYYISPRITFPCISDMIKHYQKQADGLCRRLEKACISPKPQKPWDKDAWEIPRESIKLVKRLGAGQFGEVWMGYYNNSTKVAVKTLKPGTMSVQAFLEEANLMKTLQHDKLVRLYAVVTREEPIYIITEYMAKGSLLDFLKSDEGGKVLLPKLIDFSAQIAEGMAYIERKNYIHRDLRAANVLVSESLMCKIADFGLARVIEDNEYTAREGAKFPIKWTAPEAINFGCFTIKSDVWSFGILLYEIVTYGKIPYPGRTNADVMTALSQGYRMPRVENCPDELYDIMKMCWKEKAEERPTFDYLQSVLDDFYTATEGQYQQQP

[5] = previously known; various salt forms; cited from earlier work
[6] = Clinical study in healthy volunteers: inhaled nebulized vs oral nintedanib (ELF and plasma pharmacokinetics, safety); assay type: in vivo; conditions: human
From the text: To characterize how dry powder nintedanib may perform in humans, a clinical study was first conducted comparing inhaled nebulized and oral nintedanib in healthy volunteers.

[7] = Pirfenidone-nintedanib interaction: physical stability of nintedanib solution in 67 mM sodium chloride; assay type: physicochemical; conditions: 0.25 mg/mL nintedanib, about 67 mM sodium chloride
[8] = Sheep pharmacokinetics (ELF and plasma): nebulized inhaled nintedanib, fixed combination with pirfenidone, oral nintedanib; assay type: in vivo; conditions: for Cmax / AUC / half-life / Tmax: female, Merino cross-bred, sheep
Procedure: All animals had received standard vaccinations and were treated orally with anthelminthic (in line with standard management practices) prior to arrival at the animal facility to eliminate any worm parasites before experimentation. Experimental animals were rotated between indoor small group pen housing and metabolism cages under controlled ambient conditions (20-22° C.) and maintained on a 12 h light/dark throughout the experimental period. […] All formulations used in this study were stored at room temperature (RT) and protected from light prior to use; drugs were prepared on day of use. Sheep arrived into the facility as one group and were acclimatized over 2-3 weeks (group housing to indoor cage/pens) prior to experimentation. […] Group 1 sheep also received Treatment 1b, an addition/modification to the original study protocol. Treatments were administered over Weeks 3-9 of the study; each experimental Treatment was performed over a one week period in either Group 1 or Group 2 sheep (e.g., one group received Treatment while the other group was rested). Group 1 and Group 2 sheep were allocated separate sampling schedules for peripheral blood and bronchoalveolar lavage fluid (BALF) collections (Table 16). For nebulized aerosol drug administration to the lungs (inhalation dosing), a lubricated cuffed endotracheal (ET) tube (Portex, 7.0-8.0 mm internal diameter) was inserted via the nasal passage (guided by a fibre-optic endoscope) into the trachea. […] Respiration was set to 20 breaths/min, 50% inspiration and a tidal volume of 350 mL. Filters (Hudson RCl, NC, USA) were placed in the expiratory line to collect any expired drug dose. Following drug administration all lines, filters and nebulizer components were rinsed with 50 mL sterile saline to collect any remaining or expired dose. Washout sample aliquots (500 μl) were frozen on dry ice in 1.5 mL Eppendorf tubes, then stored at −80° C. prior to shipment for drug content analyses. Oral drug administration (Treatment 3) followed the procedure as detailed below (oral dosing optimization). A feeding tube (7 mm internal diameter) was inserted via the nasal passage (guided by a fibre-optic endoscope) into the upper region of the esophagus. […] Blood samples collected prior to and following drug administration (Table 16) were placed into K3EDTA-coated tubes. […] BALF samples were collected prior to and following drug administration ([…]). Sampling was carried out by intra-lung infusion of 25 ml of sterile saline via a catheter through the biopsy port of the bronchoscope, followed by immediate retrieval of the BALF sample into the collection syringe. BALF was collected from separate lung segments/lobes to avoid contamination between sampling time-points: the right apical lobe (RA) was used for all pre-dose sampling and post-dose samples were collected from right middle (RM); right caudal (RC); left caudal (LC); left middle (LM); and left apical (LA) lung lobes. BALF sampling details (volumes, exact time of collection) were recorded and samples immediately frozen on dry ice, then stored at −80° C. prior to shipment for drug content analyses.

[9] = target: T1, Flt-3 (Homo sapiens, UniProt P36888); conditions: cited from earlier work
T1 sequence (P36888 27-993): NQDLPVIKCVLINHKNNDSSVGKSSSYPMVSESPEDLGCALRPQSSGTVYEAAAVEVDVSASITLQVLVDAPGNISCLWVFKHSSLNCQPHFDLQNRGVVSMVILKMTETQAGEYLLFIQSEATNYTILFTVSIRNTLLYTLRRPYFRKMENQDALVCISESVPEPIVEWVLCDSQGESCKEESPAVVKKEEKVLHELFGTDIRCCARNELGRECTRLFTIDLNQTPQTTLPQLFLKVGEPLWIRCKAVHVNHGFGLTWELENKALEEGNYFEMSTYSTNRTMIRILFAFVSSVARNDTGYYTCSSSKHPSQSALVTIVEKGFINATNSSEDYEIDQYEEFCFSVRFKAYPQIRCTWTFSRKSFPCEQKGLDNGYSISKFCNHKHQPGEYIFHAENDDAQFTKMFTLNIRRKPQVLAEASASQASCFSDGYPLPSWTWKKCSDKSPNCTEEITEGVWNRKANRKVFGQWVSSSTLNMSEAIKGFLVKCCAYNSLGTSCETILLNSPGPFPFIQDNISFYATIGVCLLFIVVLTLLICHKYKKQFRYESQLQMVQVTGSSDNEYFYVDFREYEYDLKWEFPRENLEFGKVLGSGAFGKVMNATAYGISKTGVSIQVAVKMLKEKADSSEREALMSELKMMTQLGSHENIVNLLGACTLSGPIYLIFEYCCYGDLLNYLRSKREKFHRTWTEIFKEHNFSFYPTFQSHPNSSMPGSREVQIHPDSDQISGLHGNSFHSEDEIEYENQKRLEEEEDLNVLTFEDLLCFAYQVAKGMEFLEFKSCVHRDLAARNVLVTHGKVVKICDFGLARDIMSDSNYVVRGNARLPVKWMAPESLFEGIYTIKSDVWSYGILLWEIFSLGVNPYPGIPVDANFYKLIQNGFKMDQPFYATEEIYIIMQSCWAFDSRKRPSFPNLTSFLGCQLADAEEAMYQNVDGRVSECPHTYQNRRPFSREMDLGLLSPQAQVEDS

[10] = in vivo; cited from earlier work
[11] = target: Src (Homo sapiens, UniProt P12931); conditions: cited from earlier work
Src, sequence (P12931 whole entry, species assumed): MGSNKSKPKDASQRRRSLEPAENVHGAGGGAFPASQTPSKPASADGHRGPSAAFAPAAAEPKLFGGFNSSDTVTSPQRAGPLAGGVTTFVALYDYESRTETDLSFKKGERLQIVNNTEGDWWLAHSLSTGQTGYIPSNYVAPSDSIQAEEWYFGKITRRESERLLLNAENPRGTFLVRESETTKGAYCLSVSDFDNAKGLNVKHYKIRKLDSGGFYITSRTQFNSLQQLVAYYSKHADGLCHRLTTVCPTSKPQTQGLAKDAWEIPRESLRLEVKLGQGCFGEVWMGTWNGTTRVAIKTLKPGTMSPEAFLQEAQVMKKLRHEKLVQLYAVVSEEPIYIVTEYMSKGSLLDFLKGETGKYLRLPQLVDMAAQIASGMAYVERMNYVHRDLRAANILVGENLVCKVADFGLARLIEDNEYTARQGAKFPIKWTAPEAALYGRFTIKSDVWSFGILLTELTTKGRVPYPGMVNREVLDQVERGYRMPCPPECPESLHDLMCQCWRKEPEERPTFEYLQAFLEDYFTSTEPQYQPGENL

[12] = +4 months at laboratory conditions
[13] = inhaled nebulized, 2 mg, IPD = immediate post dose

PSD D10 [1]: 0.04 μm
PSD D50 [1]: 1.03 μm
PSD D90 [1]: 2.66 μm
SMILES: Br.COC(=O)c1ccc2c(c1)NC(=O)/C2=C(\Nc1ccc(N(C)C(=O)CN2CCN(C)CC2)cc1)c1ccccc1 [Batch 1]

PSD D10 [1]: 0.60 μm
PSD D50 [1]: 1.51 μm
PSD D90 [1]: 2.87 μm
SMILES: Br.COC(=O)c1ccc2c(c1)NC(=O)/C2=C(\Nc1ccc(N(C)C(=O)CN2CCN(C)CC2)cc1)c1ccccc1 [Batch 2]

stability of micronised drug substance (PSD, moisture, SEM, XRPD, DSC) [2]: did not change during the study
Water Content ([3]; 1 month 25/60): 5.3%
Water Content ([3]; 1 month 40/75): 5.2%
Water Content [3, 12]: 4.7%
Water Content ([3]; T0): 5.3%
D10 ([1]; 1 month 25/60): 0.6 mcm
D50 ([1]; 1 month 25/60): 1.6 mcm
D90 ([1]; 1 month 25/60): 3.0 mcm
D10 ([1]; 1 month 40/75): 0.6 mcm
D50 ([1]; 1 month 40/75): 1.5 mcm
D90 ([1]; 1 month 40/75): 2.6 mcm
D10 [1, 12]: 0.6 mcm
D50 [1, 12]: 1.5 mcm
D90 [1, 12]: 2.9 mcm
D10 ([1]; T0): 0.5 mcm
D50 ([1]; T0): 1.5 mcm
D90 ([1]; T0): 2.8 mcm
SMILES: COC(=O)c1ccc2c(c1)NC(=O)/C2=C(\Nc1ccc(N(C)C(=O)CN2CCN(C)CC2)cc1)c1ccccc1 [Micronised Nintedanib HBr]

pirfenidone parts per 1 part nintedanib (weight by weight) that stabilizes nintedanib in solution [7]: greater than 30 parts
Cmax ([8]; epithelial lining fluid (ELF), inhaled or intranasal, 0.06 mg/kg, inhaled nebulized liquid, 2 mg (0.06 mg/kg), read-out: ELF Cmax): 7380 ng/mL
Cmax ([8]; epithelial lining fluid (ELF), inhaled or intranasal, 0.06 mg/kg, inhaled nebulized monotherapy, 2 mg (0.06 mg/kg), Table 19, read-out: ELF Cmax): 7880 ng/mL
AUC ([8]; epithelial lining fluid (ELF), inhaled or intranasal, 2 mg, inhaled nebulized monotherapy, 2 mg, Table 19, read-out: ELF AUC): 7300 ng·h/mL
AUC ([8]; epithelial lining fluid (ELF), inhaled or intranasal, 2 mg, inhaled nebulized, 2 mg, read-out: ELF AUC): 5400 ng·h/mL
half-life ([8]; epithelial lining fluid (ELF), inhaled or intranasal, inhaled nebulized, 2 mg, read-out: ELF T1/2 (α) (converted)): 0.25 h
Cmax ([8]; epithelial lining fluid (ELF), po, 2.14 mg/kg, oral, 75 mg (2.14 mg/kg), 3 mg/mL in water, read-out: ELF Cmax): 74 ng/mL
AUC ([8]; epithelial lining fluid (ELF), po, 75 mg, oral, 75 mg, read-out: ELF AUC): 1200 ng·h/mL
half-life ([8]; epithelial lining fluid (ELF), oral, 75 mg, read-out: ELF T1/2 (converted)): 10 h
Tmax ([8]; epithelial lining fluid (ELF), oral, 75 mg, read-out: ELF Tmax): 10 h
AUC ([8]; plasma, inhaled or intranasal, 2 mg, inhaled nebulized monotherapy, 2 mg, Table 19, read-out: Plasma AUC): 4 ng·h/mL
Cmax ([8]; plasma, inhaled or intranasal, 2 mg, inhaled nebulized monotherapy, 2 mg, Table 19, read-out: Plasma Cmax): 3.9 ng/mL
AUC ([8]; plasma, inhaled or intranasal, 2 mg, inhaled nebulized, 2 mg, read-out: Plasma AUC): 7 ng·h/mL
Cmax ([8]; plasma, inhaled or intranasal, 2 mg, inhaled nebulized, 2 mg, read-out: Plasma Cmax): 5.9 ng/mL
half-life ([8]; plasma, inhaled or intranasal, inhaled nebulized, 2 mg, read-out: Plasma T1/2 (α) (converted)): 0.25 h
AUC ([8]; plasma, po, 75 mg, oral, 75 mg, read-out: Plasma AUC): 58 ng·h/mL
Cmax ([8]; plasma, po, 75 mg, oral, 75 mg, read-out: Plasma Cmax): 3.6 ng/mL
half-life ([8]; plasma, oral, 75 mg, read-out: Plasma T1/2 (converted)): 10 h
Tmax ([8]; plasma, oral, 75 mg, read-out: Plasma Tmax): 9 h
ELF Tmax [8, 13]: IPD^b
Plasma Tmax [8, 13]: IPD^b
SMILES: COC(=O)c1ccc2c(c1)NC(=O)/C2=C(\Nc1ccc(N(C)C(=O)CN2CCN(C)CC2)cc1)c1ccccc1 [Nintedanib, methyl (3Z)-3-[[4-[methyl-[2-(4-methylpiperazin-1-yl)acetyl]amino]anilino]-phenylmethylidene]-2-oxo-1H-indole-6-carboxylate]
inhibition [4]: inhibited
sodium chloride concentration at which nintedanib is physically unstable in solution [5]: ≥ 30 mM
AUC ([6]; epithelial lining fluid (ELF), inhaled or intranasal, inhaled nebulized liquid 2 mg, read-out: ELF AUC): 3400 ng·h/mL
Cmax ([6]; epithelial lining fluid (ELF), inhaled or intranasal, inhaled nebulized liquid 2 mg, read-out: ELF Cmax): 4660 ng/mL
AUC ([6]; epithelial lining fluid (ELF), oral tablet 150 mg, read-out: ELF AUC): 1200 ng·h/mL
Cmax ([6]; epithelial lining fluid (ELF), oral tablet 150 mg, read-out: ELF Cmax): 72.7 ng/mL
Tmax ([6]; plasma, inhaled or intranasal, inhaled nebulized liquid 2 mg): 0.2 h
AUC ([6]; plasma, inhaled or intranasal, inhaled nebulized liquid 2 mg, read-out: Plasma AUC): 4 ng·h/mL
Cmax ([6]; plasma, inhaled or intranasal, inhaled nebulized liquid 2 mg, read-out: Plasma Cmax): 2.8 ng/mL
Tmax ([6]; plasma, oral tablet 150 mg): 7.8 h
AUC ([6]; plasma, oral tablet 150 mg, read-out: Plasma AUC): 163 ng·h/mL
Cmax ([6]; plasma, oral tablet 150 mg, read-out: Plasma Cmax): 13.5 ng/mL
adverse responses to oral dosing ([8]; 75 mg oral with glucose chaser): without any adverse responses observed
inhibition [9]: inhibited
fraction of administered nintedanib excreted in the urine [10]: About 80%
inhibition [11]: inhibited
